From patent US20170105969A1, “CENICRIVIROC FOR THE TREATMENT OF HIV-2 INFECTION” (Tobira Therapeutics, Inc., priority 2014, published 2017)
Where a name gives a salt, the structure may show the parent alone. Read-outs that look alike come from different tables or passages of the source. Marks after values point to notes of the source that are not given here.

Columns and labels:
CCR2 = target: T1, CCR2 (Homo sapiens, UniProt P41597); assay: CCR2 receptor occupancy / internalization in PBMCs (monocytes) by flow cytometry; assay type: cell-based
T1 construct: endogenous in cells; host or cells: monocytes within PBMCs from 5 HIV+ and 5 HIV- subjects
T1 sequence (P41597 1-360 isoform P41597-2): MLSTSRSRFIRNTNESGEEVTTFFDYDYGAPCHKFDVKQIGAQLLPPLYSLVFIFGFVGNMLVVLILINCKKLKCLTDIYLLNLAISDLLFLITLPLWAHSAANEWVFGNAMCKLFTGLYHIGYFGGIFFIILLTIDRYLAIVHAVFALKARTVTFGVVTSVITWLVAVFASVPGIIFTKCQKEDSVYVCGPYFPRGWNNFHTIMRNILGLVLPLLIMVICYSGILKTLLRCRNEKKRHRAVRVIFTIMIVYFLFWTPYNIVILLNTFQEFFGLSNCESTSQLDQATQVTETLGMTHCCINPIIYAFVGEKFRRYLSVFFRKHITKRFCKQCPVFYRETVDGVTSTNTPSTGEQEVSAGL
Experimental: (§1) The capacity of each drug to inhibit CCR5 or CCR2 internalization was evaluated. Cell-surface expression of CCR5 and CCR2 was assessed by flow cytometry, and fluorescence values were converted into molecules of equivalent soluble fluorescence (MESF).

HIV = assay: Ex vivo intracellular HIV DNA (qPCR) in PBMCs of Study 202 subjects; conditions: EFV 600 mg arm, Week 24
Experimental: (§2) Early (strong-stop) and late (full-length) reverse transcript levels were measured by qPCR. […] P24 and viral load levels were measured by ELISA and qRT-PCR after 4 hours.

HIV-1 [1] = assay: Study 202: virologic response (plasma HIV-1 RNA <50 copies/mL), Snapshot algorithm, ITT; assay type: in vivo, human; conditions: Week 24; EFV arm
From the text: The primary efficacy endpoint was the percentage of subjects with plasma HIV-1 RNA <50 copies/mL at Week 24 (using the FDA Snapshot algorithm and the ITT population).

HIV-1 [2] = assay: as above; assay type: in vivo, human; conditions: for virologic non-response, subgroup with high baseline viral load (≧100,000 copies/mL): EFV
[3] = APRI and FIB-4 fibrosis scores, post-hoc analysis of Study 202; assay type: in vivo, human
Experimental: Change in score category from baseline (BL) to Weeks 24 and 48 was assessed in patients with non-missing data. Correlations between changes from BL in APRI and FIB-4 scores, and MCP-1 (CCR2 ligand) and sCD14 (inflammatory biomarker) levels were evaluated.

[4] = Solubility of cenicriviroc mesylate; assay type: physicochemical
HIV-2 clinical isolates = assay: HIV-2 phenotypic susceptibility, ANRS PBMC method; assay type: cell-based
Experimental: All patients were infected with HIV-2 group A. Tropism was determined phenotypically using Ghost(3) cell lines expressing CD4 receptor and one HIV coreceptor, CCR5 or CXCR4. Both Ghost(3) cell lines carries a humanized green fluorescent protein (GFP) gene, under the control of a HIV-2 LTR. […] Ghost(3) cells were provided by the NIH AIDS Reagent program.
Briefly, cell-free HIV-2 positive supernatant was serially diluted (1, 10^−1, and 10^−2) and incubated with PBMC for viral titration. Viruses were tested at a 100 TCID50 titration. Cells were pre-incubated with cenicriviroc or maraviroc at an appropriate concentration 1 hour before viral infection. Six serial dilutions of the antiretroviral drug were tested in quadruplicate. On day 4, viral replication was assessed by a specific viral load assay (Generic HIV-2 viral load, Biocentric, France).

HIV-1 [5] = assay: HIV-1 susceptibility to maraviroc, observed results; assay type: cell-based; conditions: HIV-1 (n = 4)
CCR5 = CCR5 (Homo sapiens, UniProt P51681); assay: CCR5 receptor occupancy / internalization in PBMCs by flow cytometry; assay type: cell-based
Experimental: as §1

CCR5-tropic HIV-1 BaL = assay: PM-1 cells infected with HIV-1 BaL, supernatant P24 and viral load after 4 hours; assay type: cell-based; conditions: CVC 20 nM or MVC 50 nM
Experimental: as §2

HIV-1 [6] = conditions: HIV-1 (n = 43); Dorr et al. (2005); read-out: Median IC50; cited from earlier work
[7] = HIV-2 isolate 10-046, group A, R5
[8] = HIV-2 isolate 10-051, group A, R5
[9] = HIV-2 isolate 10-055, group A, X4
[10] = HIV-2 isolate 10-056, group A, R5
[11] = HIV-2 isolate 10-069, group A, Dual
[12] = HIV-2 isolate 10-074, group A, R5
[13] = mixed R5/X4 HIV-2 clinical isolate, first of two
[14] = mixed R5/X4 HIV-2 clinical isolate, second of two

CCR5, sequence (P51681 whole entry): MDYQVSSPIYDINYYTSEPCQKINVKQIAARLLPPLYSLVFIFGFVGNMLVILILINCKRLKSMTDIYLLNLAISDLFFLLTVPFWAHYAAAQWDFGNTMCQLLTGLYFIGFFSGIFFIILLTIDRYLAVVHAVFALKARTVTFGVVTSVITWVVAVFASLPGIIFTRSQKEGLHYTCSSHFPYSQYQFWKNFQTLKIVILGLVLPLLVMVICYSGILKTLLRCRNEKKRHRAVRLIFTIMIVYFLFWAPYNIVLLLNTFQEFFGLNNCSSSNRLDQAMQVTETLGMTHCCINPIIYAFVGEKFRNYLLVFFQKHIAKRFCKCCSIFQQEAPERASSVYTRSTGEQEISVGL

Compound: CSc1ccc(C(=O)N[C@@H]2CCCC[C@@H]2NC(=O)CNC(=O)c2cc(C(F)(F)F)ccc2NC(=O)NC(C)C)cc1 [BMS-22, reference compound]
- average concentration required to reach >80% receptor occupancy (CCR2; CCR2, monocytes): 18 nM
- CCR2 cell-surface expression (in words) (CCR2; in the absence of MCP-1, monocytes): slightly increased CCR2 cell-surface expression

Compound: O=C1Nc2ccc(Cl)cc2[C@@](C#CC2CC2)(C(F)(F)F)O1 [EFV, efavirenz, reference compound]
- Strong-stop HIV DNA decline (marker of HIV entry) (HIV): no decline
- Discontinued study due to AE or death (HIV-1 [1]): (18%)
- HIV-1 RNA ≧50 but <400 copies/mL (HIV-1 [1]): (4%)^f
- virologic non-response, subgroup with high baseline viral load (≧100,000 copies/mL) (HIV-1 [2]; Week 24): 25%
- virologic non-response, subgroup with high baseline viral load (≧100,000 copies/mL) (HIV-1 [2]; Week 48): 25%
- Discontinued study due to AE or death (HIV-1 [2]; Week 48, EFV arm): (21%)
- patients in APRI category 0.5-1.5 ([3]; Baseline): 4%
- patients in APRI category <0.5 ([3]; Baseline): 96%
- patients in FIB-4 category <1.45 ([3]; Baseline): 100%
- APRI: Decreased 1 category from baseline ([3]; Week 24): 5%
- patients in APRI category <0.5 ([3]; Week 24): 100%
- patients in FIB-4 category <1.45 ([3]; Week 24): 100%
- APRI: Decreased 1 category from baseline ([3]; Week 48): 6%
- patients in APRI category <0.5 ([3]; Week 48): 100%
- patients in FIB-4 category 1.45-3.25 ([3]; Week 48): 6%
- patients in FIB-4 category <1.45 ([3]; Week 48): 94%

Compound: CCCCOCCOc1ccc(-c2ccc3c(c2)C=C(C(=O)Nc2ccc([S@@+]([O-])Cc4cncn4CCC)cc2)CCCN3CC(C)C)cc1 [cenicriviroc mesylate, (S)-8-[4-(2-Butoxyethoxy)phenyl]-1-isobutyl-N-(4-{[(1-propyl-1H-imidazol-5-yl)methyl]sulfinyl}phenyl)-1,2,3,4-tetrahydro-1-benzazocine-5-carboxamide monomethanesulfonoate]
- solubility ([4]; 99.5% ethanol): sparingly soluble
- solubility ([4]; acetonitrile, 1-octanol, tetrahydrofuran): slightly soluble
- solubility ([4]; aqueous solution at pH 3): sparingly soluble
- solubility ([4]; aqueous solution from pH 1 to 2): freely soluble
- solubility ([4]; aqueous solution from pH 4 to 13 and in water): practically insoluble
- solubility ([4]; ethyl acetate and diethylether): practically insoluble
- solubility ([4]; glacial acetic acid, methanol, benzyl alcohol, dimethylsulfoxide, N,N-dimethylformamide): freely soluble
- solubility ([4]; pyridine and acetic anhydride): soluble

Compound: maraviroc [MVC]
- median MPI (HIV-2 clinical isolates; 13 R5 HIV-2 clinical isolates): 93%
- median MPI (HIV-2 clinical isolates; 13 R5 HIV-2 clinical isolates, listed as maraviroc): 93%
- EC50 (HIV-2 clinical isolates; [7]): 1.13 nM
- MPI (%) (HIV-2 clinical isolates; [7]): 93%
- EC50 (HIV-2 clinical isolates; [8]): 0.48 nM
- MPI (%) (HIV-2 clinical isolates; [8]): 82%
- EC50 (HIV-2 clinical isolates; [9]): > 1000 nM
- MPI (%) (HIV-2 clinical isolates; [9]): 0%
- EC50 (HIV-2 clinical isolates; [10]): 0.58 nM
- MPI (%) (HIV-2 clinical isolates; [10]): 90%
- EC50 (HIV-2 clinical isolates; [11]): > 1000 nM
- MPI (%) (HIV-2 clinical isolates; [11]): 12%
- EC50 (HIV-2 clinical isolates; [12]): 0.68 nM
- MPI (%) (HIV-2 clinical isolates; [12]): 100%
- EC50 (HIV-2 clinical isolates; X4 HIV-2 clinical isolate): > 1000 nM
- MPI (HIV-2 clinical isolates; X4 HIV-2 clinical isolate): 0%
- EC50 (HIV-2 clinical isolates; [13]): 9.4 nM
- MPI (HIV-2 clinical isolates; [13]): 55%
- EC50 (HIV-2 clinical isolates; [14]): > 1000 nM
- MPI (HIV-2 clinical isolates; [14]): 12%
- IC50 (HIV-2 clinical isolates; read-out: Median IC50, HIV-2 (n = 13), Observed Results): 0.8 nM
- EC50 (HIV-2 clinical isolates; read-out: median EC50, 13 R5 HIV-2 clinical isolates): 0.8 nM
- median MPI (HIV-1 [5]): 74%
- IC50 (HIV-1 [5]; read-out: Median IC50): 2.4 nM
- CCR5 receptor occupancy at saturation (CCR5; CD4+ T cells): ~86%
- effective concentration at which saturation of CCR5 was reached (CCR5; CD4+ T cells): 12.5 nM
- CCR5 receptor occupancy at saturation (CCR5; CD8+ T cells): ~87%
- effective concentration at which saturation of CCR5 was reached (CCR5; CD8+ T cells): 12.5 nM
- cell-surface expression of CCR5 (in words) (CCR5; in the absence of RANTES, PBMCs): increased cell-surface expression of CCR5
- supernatant P24 (CCR5-tropic HIV-1 BaL; 0 hrs (baseline)): 506 ng/mL
- viral load (CCR5-tropic HIV-1 BaL; 0 hrs): 1.19×10^10 copies/ml
- supernatant P24 (CCR5-tropic HIV-1 BaL; 4 hrs): 520 ng/mL
- viral load (CCR5-tropic HIV-1 BaL; 4 hrs): 1.67×10^10 copies/ml
- IC50 (HIV-1 [6]): 0.4 nM
